# According to patent US20250290074A1, “TARGETED TREATMENT OF SPLICEOPATHY-INDUCED NEUROLOGICAL DISORDERS” (Auttx, LLC, priority 2022, published 2025):
# Like-named read-outs stand apart in the source and are kept apart here. Strand notation (5' to 3'): a small letter for the sugar, then the base; units joined by * are phosphorothioate-linked, units joined directly phosphodiester-linked; [ ] holds rarer units or linkages, { } end groups; capitals alone tell only the bases. e = 2'-O-(2-methoxyethyl) (MOE); [5mC] = 5-methylcytosine
# Key:
# TDP-43 aggregation = details: iPS cell derived motor neurons, sporadic ALS; Burkhardt et al. 2013; cited from earlier work
# HNRNPL = details: Gene HNRNPL; cited from earlier work
# [1] = U.S. Pat. No. 3,995,061, cited from earlier work; for toxicity: administered orally to human
# [2] = mouse, in vivo, po; cited from earlier work
# cancer = details: literature; cited from earlier work
# [3] = cited from earlier work; for toxicity (LD50): IP or oral administration, U.S. Pat. No. 3,995,061, FIGS. 15A and 15B; for toxicity (shown to be non-toxic): in vivo
# [4] = system: vascular endothelial growth factor (VEGF); details: Jeong J. H. et al. 2011; cited from earlier work
# [5] = system: glucose transporter 1 (GLUT-1); details: Jeong J. H. et al. 2011; cited from earlier work
# [6] = rat, in vivo, po; cited from earlier work
# hnRNP L [7] = assay: Western blot of hnRNP L protein in rat primary cortical neurons after ASC treatment; type: cell-based; details: 10^−7 M or 10^−6 M ASC, FIG. 14
# Method: (§1) FIG. 14 is a gel image showing a comparison of hnRNP L protein levels in rat primary cortical neurons with or without ASC treatments at different doses. The rat neurons were treated with 10^−7 M or 10^−6 M ASC, or not treated as control (“Cont.”), and then lysed for western blot detection of protein expression levels of hnRNP L (the upper panel). The arrow points to hnRNP L protein bands (appears as a triplet). […] FIG. 14B is a gel image showing elevation of hnRNP L levels after ASC treatment in SH-SY5Y human neuroblastoma cells (CLT results).
# (§2) Such function of ASC was also found in human osteosarcoma cells (about 10-fold) and multiple disease models, see PCT publication no. WO/2019/236750, which is incorporated by reference herein in its entirety.
# hnRNP L [8] = assay: hnRNP L expression in human differentiated myoblasts after ASC treatment; type: cell-based
# Description: as §2
# hnRNP L [9] = assay: hnRNP L levels after ASC treatment in SH-SY5Y human neuroblastoma cells; type: cell-based; details: FIG. 14B
# Method: as §1
# hnRNP L [10] = details: cited from earlier work; for increase in the levels of hnRNP L: human osteosarcoma cells (U2OS)
# [11] = system: human hnRNP L (hsHNRNP L) mRNA; assay: 5-point dose response (DRC) of ASOs, hnRNP L mRNA by branched DNA assay in BE(2)-M17 cells; type: cell-based; details: 24 h; for max. upregulation [%] (MV normalized hsHNRNP L/hsGAPDH): Lipofectamine3000, highest 120 nM, four 4-fold dilutions, bDNA, negative controls set to 100%; for EC50: hsHNRNP L mRNA upregulation, XLfit
# Description: Data were generated in biological quadruplicates. […] No significant decrease in hsGAPDH mRNA levels was observed.
# Details and data are shown in Table 9A-9B, FIG. 24, and FIG. 25A-25E. In some cases, there was dose dependent hsHNRNP L on-target mRNA upregulation to varying degrees when cells were transfected with ASO compounds of interest.
# hsHNRNP L mRNA = assay: Time-course experiment, ASOs at 30 nM, hnRNP L mRNA by bDNA in BE(2)-M17 cells; type: cell-based, Homo sapiens; details: 30 nM ASO, mock controls set to 100%, incubations 24 h, 48 h, 72 h, time point not given
# Method: Lipofectamine3000 (LF3000) was again used as the transfection agent. The transfection mixture was prepared identically on three plates. […] In this case, no outliers were removed. Data were generated in biological quadruplicates.
# FIG. 26 includes a comparison of results from this study next to results from Example 7. Observing the results after 24 h incubation, similar data from the analysis in Example 7 were reproduced here.
molecule,measurement,setting,value
C[C@H]1O[C@@H](O[C@H]2[C@@H](O)C[C@H](O[C@H]3[C@@H](O)C[C@H](O[C@H]4CC[C@@]5(C)[C@H](CC[C@@H]6[C@@H]5C[C@@H](O)[C@]5(C)[C@@H](C7=CC(=O)OC7)CC[C@]65O)C4)O[C@@H]3C)O[C@@H]2C)C[C@H](O)[C@@H]1O [digoxin],hit in screen for compounds reducing TDP-43 aggregation,TDP-43 aggregation,hits confirmed in dose response assays
same,"Source (DSigDB signature, association with increased hnRNP L levels)",HNRNPL,D3(UP)
C[C@H](CS)C(=O)N1CCC[C@H]1C(=O)O [captopril],"Source (DSigDB signature, association with increased hnRNP L levels)",HNRNPL,D3(UP)
CCc1c2c(nc3ccc(OC(=O)N4CCC(N5CCCCC5)CC4)cc13)-c1cc3c(c(=O)n1C2)COC(=O)[C@]3(O)CC [irinotecan],"Source (DSigDB signature, association with increased hnRNP L levels)",HNRNPL,D3(UP)
"COc1c(Cl)c(C)c(C=O)c(O)c1C/C=C(C)/C=C/[C@@]1(C)[C@H](C)CCC(=O)[C@@H]1C [MAC, 4-O-methylascochlorin]",tolerability in clinical trials,[1],well tolerated
same,toxicity,[1],low toxicity
same,toxicity,[2],low toxicity
same,antitumorigenic / anti-cancer properties,cancer,antitumorigenic properties
same,toxicity (LD50),[3],low toxicity
same,expression of VEGF,[4],increases
same,expression of GLUT-1,[5],increases
same,toxicity,[6],low toxicity
CCOc1c(Cl)c(C)c(C=O)c(O)c1C/C=C(C)/C=C/C1(C)C(C)CCC(=O)C1C (centres unmarked) [4-O-ethyl-ascochlorin],toxicity,[1],low toxicity
same,toxicity (LD50),[3],low toxicity
ascochlorin,antitumorigenic / anti-cancer properties,cancer,antitumorigenic properties
same,toxicity (shown to be non-toxic),[3],non-toxic
same,hnRNP L expression levels,hnRNP L [7],increased
same,increase of hnRNP L expression levels,hnRNP L [8],about 6 fold
same,hnRNP L levels,hnRNP L [9],elevation
same,increase of hnRNP L levels,hnRNP L [10]; Kang J. H. et al. J Proteome Res. 2006,~12 ×
same,increase in the levels of hnRNP L,hnRNP L [10],≥ 10 fold
same,increase in the levels of hnRNP L,hnRNP L [10]; listed as ASC,about 10 fold
C/C(=C\Cc1c(O)c(Cl)c(C)c(C=O)c1O)CC/C=C(\C)[C@@H]1CC(=O)C(C)(C)O1 [ascofuranone],antitumorigenic / anti-cancer properties,cancer,antitumorigenic properties
same,toxicity (shown to be non-toxic),[3],non-toxic
C[C@@H]1O[C@@H](O[C@@H]2C=C3CC[C@@H]4[C@H](CC[C@]5(C)[C@@H](c6ccc(=O)oc6)CC[C@]45O)[C@@]3(C)CC2)[C@H](O)[C@H](O)[C@H]1O [proscillaridin],hit in screen for compounds reducing TDP-43 aggregation,TDP-43 aggregation,hits confirmed in dose response assays
same,"Source (DSigDB signature, association with increased hnRNP L levels)",HNRNPL,D3(UP)
"C=C1CC[C@H](O)C(C)(C)[C@@H]1CC/C(C)=C/Cc1c(O)c(Cl)c(C)c(C=O)c1O [acremochlorin A, reference compound]",antitumorigenic / anti-cancer properties,cancer,anti-cancer properties
"Skip-6A-4: ASO TACAGTCATAAATACAAGTCAC (SEQ ID NO: 53), fully 2′-MOE, 5′-methyl C, phosphorothioate; upstream intron (antisense eT*eA*e[5mC]*eA*eG*eT*e[5mC]*eA*eT*eA*eA*eA*eT*eA*e[5mC]*eA*eA*eG*eT*e[5mC]*eA*e[5mC]; listed as Homo sapiens)",max. upregulation [%] (MV normalized hsHNRNP L/hsGAPDH),[11],24.0%
same,EC50,[11],18.9 nM
same,MV normalized hsHNRNP L/hsGAPDH,hsHNRNP L mRNA,26.9%
"Skip-6A-14: ASO TTAGCACAGTTCTGAAAGATGG (SEQ ID NO: 63), fully 2′-MOE, 5′-methyl C, phosphorothioate; exon 6A (antisense eT*eT*eA*eG*e[5mC]*eA*e[5mC]*eA*eG*eT*eT*e[5mC]*eT*eG*eA*eA*eA*eG*eA*eT*eG*eG; listed as Homo sapiens)",max. upregulation [%] (MV normalized hsHNRNP L/hsGAPDH),[11],52.3%
same,EC50,[11],6.41 nM
same,MV normalized hsHNRNP L/hsGAPDH,hsHNRNP L mRNA,55.8%
"CC(C=CC1(C)C(C)CCC(=O)C1C)=CCc1c(O)c(Br)c(C)c(C=O)c1O (centres unmarked) [3-bromoascochlorin, reference compound]",antitumorigenic / anti-cancer properties,cancer,anti-cancer properties
"Skip-6A-8: ASO ATACACTGCGACCCTGCATCAC (SEQ ID NO: 57), fully 2′-MOE, 5′-methyl C, phosphorothioate; upstream intron/exon (antisense eA*eT*eA*e[5mC]*eA*e[5mC]*eT*eG*e[5mC]*eG*eA*e[5mC]*e[5mC]*e[5mC]*eT*eG*e[5mC]*eA*eT*e[5mC]*eA*e[5mC]; listed as Homo sapiens)",max. upregulation [%] (MV normalized hsHNRNP L/hsGAPDH),[11],18.0%
same,EC50,[11],8.54 nM
same,MV normalized hsHNRNP L/hsGAPDH,hsHNRNP L mRNA,26.0%
CN(C)C(=O)Oc1cccc([N+](C)(C)C)c1 [neostigmine bromide],"Source (DSigDB signature, association with increased hnRNP L levels)",HNRNPL,D3(UP)
